According to US7351703B2, “Sulfonylamino carboxylic acid N-arylamides as guanylate cyclase activators” (Sanofi-Aventis Deutschland GmbH, priority 1999, dated 2008):

Assays:
[1] = target: T1, soluble guanylate cyclase (sGC) (Bos taurus, UniProt P16068); test: Activation of soluble guanylate cyclase (cGMP enzyme immunoassay); type: biochemical; details: sGC isolated from bovine lung, stimulation of basal enzyme activity vs solvent control
T1 construct: The sGC employed had been isolated from bovine lung; from tissue; host or cells: bovine lung
T1 sequence (P16068 1-619): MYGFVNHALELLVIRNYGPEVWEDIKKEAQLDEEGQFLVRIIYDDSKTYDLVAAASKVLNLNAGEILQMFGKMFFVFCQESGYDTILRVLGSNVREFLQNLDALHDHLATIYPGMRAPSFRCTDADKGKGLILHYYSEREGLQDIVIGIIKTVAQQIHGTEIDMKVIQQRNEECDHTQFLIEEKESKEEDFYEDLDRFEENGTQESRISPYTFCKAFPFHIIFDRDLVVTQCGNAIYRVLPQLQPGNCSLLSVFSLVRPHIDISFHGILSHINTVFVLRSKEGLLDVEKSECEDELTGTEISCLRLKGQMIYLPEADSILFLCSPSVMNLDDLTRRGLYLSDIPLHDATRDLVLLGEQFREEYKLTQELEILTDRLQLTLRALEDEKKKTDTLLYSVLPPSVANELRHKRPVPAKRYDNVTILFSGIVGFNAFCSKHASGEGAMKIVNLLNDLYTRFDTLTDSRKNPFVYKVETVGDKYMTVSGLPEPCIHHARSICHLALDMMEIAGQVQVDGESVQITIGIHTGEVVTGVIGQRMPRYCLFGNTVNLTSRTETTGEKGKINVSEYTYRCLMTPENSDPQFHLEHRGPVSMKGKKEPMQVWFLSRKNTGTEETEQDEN
T1 sequence (P19687 1-691 partner): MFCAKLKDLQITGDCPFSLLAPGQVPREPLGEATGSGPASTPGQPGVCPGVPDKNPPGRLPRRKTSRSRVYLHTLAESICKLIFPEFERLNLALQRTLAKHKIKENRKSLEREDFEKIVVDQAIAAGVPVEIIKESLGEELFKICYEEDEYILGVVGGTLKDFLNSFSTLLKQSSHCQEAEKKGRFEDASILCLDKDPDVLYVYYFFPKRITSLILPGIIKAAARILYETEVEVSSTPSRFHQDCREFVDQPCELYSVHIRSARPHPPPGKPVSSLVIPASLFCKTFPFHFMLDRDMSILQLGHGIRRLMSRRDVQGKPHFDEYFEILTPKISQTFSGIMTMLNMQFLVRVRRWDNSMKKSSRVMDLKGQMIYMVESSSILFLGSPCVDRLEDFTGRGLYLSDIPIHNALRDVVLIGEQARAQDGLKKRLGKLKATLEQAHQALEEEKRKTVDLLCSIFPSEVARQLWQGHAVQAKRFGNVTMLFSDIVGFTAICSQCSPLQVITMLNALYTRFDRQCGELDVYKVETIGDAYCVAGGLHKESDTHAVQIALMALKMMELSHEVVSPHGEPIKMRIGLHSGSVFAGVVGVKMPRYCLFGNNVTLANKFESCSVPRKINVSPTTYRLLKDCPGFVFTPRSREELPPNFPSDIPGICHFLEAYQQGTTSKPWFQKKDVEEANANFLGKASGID
Procedure: The activation of soluble guanylate cyclase (sGC), which catalyzes the conversion of guanosine triphosphate (GTP) to cyclic guanosine monophosphate (cGMP) and pyrophosphate, by the compounds according to the invention was quantified with the aid of an enzyme immunoassay (EIA) from Amersham. For this, the test substances were first incubated with sGC in microtiter plates and then the quantity of the resulting cGMP was determined.
The sGC employed had been isolated from bovine lung (see Methods in Enzymology, Volume 195, p. 377). The test solutions (100 μl per well) contained 50 mM triethanolamine (TEA) buffer (pH 7.5), 3 mM MgCl2, 3 mM reduced glutathione (GSH), 0.1 mM GTP, 1 mM 3-isobutyl-1-methylxanthine (IBMX), suitably diluted enzyme solution and the test substance or, in the control experiments, solvent. The test substances were dissolved in dimethyl sulfoxide (DMSO) and the solution was diluted with DMSO/water such that the final concentration c of test substance in the test batch had the value indicated below. The DMSO concentration in the test batch was 5% (v/v). The reaction was started by addition of the sGC. The reaction mix was incubated at 37° C. for 15 to 20 minutes and then stopped by ice-cooling and addition of the stop reagent (50 mM EDTA, pH 8.0). An aliquot of 50 μl was taken and employed for the determination of the cGMP content using the acetylation protocol of the Amersham cGMP EIA kit. The absorption of the samples was measured at 450 nm (reference wavelength 620 nm) in a microtiter plate reading apparatus. The cGMP concentration was determined by means of a calibration curve, which was obtained under the same experimental conditions. The activation of the sGC by a test substance is indicated as n-fold stimulation of the basal enzyme activity which was found in the control experiments (with solvent instead of test substance) (calculated according to the formula n-fold stimulation=[cGMP]test substance/[cGMP]control).

n-fold stimulation ([1]; concentration c 100 μM) [n-fold] | melting point [°C] | n-fold stimulation ([1]; concentration c 25 μM) [n-fold] | n-fold stimulation ([1]; concentration c 10 μM) [n-fold] | n-fold stimulation ([1]; concentration c 50 μM) [n-fold] | Compound
1.6 | 210 | – | – | – | O=C(Nc1ccc(Br)cc1)c1cc(Cl)ccc1NS(=O)(=O)c1ccc(Cl)cc1 [Example 9, 5-Chloro-2-(4-chlorophenylsulfonylamino)-N-(4-bromophenyl)benzamide]
1.7 | 228 | – | – | – | O=C(Nc1cccc(Cl)c1)c1cc(Cl)ccc1NS(=O)(=O)c1ccc(Cl)cc1 [Example 10, 5-Chloro-2-(4-chlorophenylsulfonylamino)-N-(3-chlorophenyl)benzamide]
1.8 | 190 | – | – | – | COc1ccc(NC(=O)c2cc(Cl)ccc2NS(=O)(=O)c2ccc(Cl)cc2)cc1 [Example 11, 5-Chloro-2-(4-chlorophenylsulfonylamino)-N-(4-methoxyphenyl)benzamide]
– | 211 | 2.8 | – | – | O=C(Nc1ccc2ccccc2c1)c1cc(Cl)ccc1NS(=O)(=O)c1ccc(Cl)cc1 [Example 12, 5-Chloro-2-(4-chlorophenylsulfonylamino)-N-(2-naphthyl)benzamide]
1.8 | 250 | – | – | – | O=C(Nc1cc(Cl)cc(Cl)c1)c1cc(Cl)ccc1NS(=O)(=O)c1ccc(F)cc1 [Example 13, 5-Chloro-2-(4-fluorophenylsulfonylamino)-N-(3,5-dichlorophenyl)benzamide]
1.7 | 185 | – | – | – | CCOC(=O)c1ccc(NC(=O)c2cc(Cl)ccc2NS(=O)(=O)c2ccc(Cl)cc2)cc1 [Example 14, Ethyl 4-(5-chloro-2-(4-chlorophenylsulfonylamino)benzoylamino)benzoate]
– | 235 | – | 9.9 | – | CS(=O)(=O)N(c1ccc(NC(=O)c2cc(Cl)ccc2NS(=O)(=O)c2ccc(Cl)cc2)cc1)S(C)(=O)=O [Example 15, 5-Chloro-2-(4-chlorophenylsulfonylamino)-N-(4-(bismethylsulfonylamino)phenyl)benzamide]
4.1 | 188 | – | – | – | CC(C)c1ccc(NC(=O)c2cc(Cl)ccc2NS(=O)(=O)c2ccc(Cl)cc2)cc1 [Example 16, 5-Chloro-2-(4-chlorophenylsulfonylamino)-N-(4-isopropylphenyl)benzamide]
3.2 | 202 | – | – | – | CCOC(=O)c1cc(NC(=O)c2cc(Cl)ccc2NS(=O)(=O)c2ccc(Cl)c(Cl)c2)ccc1Cl [Example 18, Ethyl 2-chloro-5-(5-chloro-2-(3,4-dichlorophenylsulfonylamino)benzoylamino)benzoate]
– | 228.5 | – | – | 8 | O=C(Nc1ccc(N2CCOCC2)cc1)c1cc(Cl)ccc1NS(=O)(=O)c1ccc(Cl)cc1 [Example 21, 5-Chloro-2-(4-chlorophenylsulfonylamino)-N-(4-(morpholin-4-yl)phenyl)benzamide]
– | 191 | 2.2 | – | – | O=C(Nc1ccc(OCc2ccccc2)cc1)c1cc(Cl)ccc1NS(=O)(=O)c1ccc(Cl)cc1 [Example 23, 5-Chloro-2-(4-chlorophenylsulfonylamino)-N-(4-(benzyloxy)phenyl)benzamide]
– | 226 | – | – | 2.4 | CC(=O)c1ccc(NC(=O)c2cc(Cl)ccc2NS(=O)(=O)c2ccc(Cl)cc2)cc1 [Example 24, 5-Chloro-2-(4-chlorophenylsulfonylamino)-N-(4-acetylphenyl)benzamide]
